Experimental data taken from patent publication US11964953B2, “Substituted aminothiazoles as DGKzeta inhibitors for immune activation” (Bayer Aktiengesellschaft, priority 2020, dated 2024).

What follows are compounds tested against human DGKζ (Homo sapiens (Human), UniProt Q13574) (assay: Human DGKζ kinase activity inhibition assay (ADP-Glo)). Conditions: in vitro human DGKζ kinase activity inhibition assay; read-out: IC50.
Type: biochemical
Summary of the method: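 Enzyme was C-terminally FLAG-tagged full-length recombinant human DGKζ from baculovirus-infected insect cells. Substrate preparation used octyl-β-D-glucopyranoside in 50 mM MOPS pH 7.4 with sonication; ADP generated was quantified by ADP-Glo luminescence as activity measure.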

Sequence of human DGKζ (Q13574 other isoform, or with tags, fused parts or gaps): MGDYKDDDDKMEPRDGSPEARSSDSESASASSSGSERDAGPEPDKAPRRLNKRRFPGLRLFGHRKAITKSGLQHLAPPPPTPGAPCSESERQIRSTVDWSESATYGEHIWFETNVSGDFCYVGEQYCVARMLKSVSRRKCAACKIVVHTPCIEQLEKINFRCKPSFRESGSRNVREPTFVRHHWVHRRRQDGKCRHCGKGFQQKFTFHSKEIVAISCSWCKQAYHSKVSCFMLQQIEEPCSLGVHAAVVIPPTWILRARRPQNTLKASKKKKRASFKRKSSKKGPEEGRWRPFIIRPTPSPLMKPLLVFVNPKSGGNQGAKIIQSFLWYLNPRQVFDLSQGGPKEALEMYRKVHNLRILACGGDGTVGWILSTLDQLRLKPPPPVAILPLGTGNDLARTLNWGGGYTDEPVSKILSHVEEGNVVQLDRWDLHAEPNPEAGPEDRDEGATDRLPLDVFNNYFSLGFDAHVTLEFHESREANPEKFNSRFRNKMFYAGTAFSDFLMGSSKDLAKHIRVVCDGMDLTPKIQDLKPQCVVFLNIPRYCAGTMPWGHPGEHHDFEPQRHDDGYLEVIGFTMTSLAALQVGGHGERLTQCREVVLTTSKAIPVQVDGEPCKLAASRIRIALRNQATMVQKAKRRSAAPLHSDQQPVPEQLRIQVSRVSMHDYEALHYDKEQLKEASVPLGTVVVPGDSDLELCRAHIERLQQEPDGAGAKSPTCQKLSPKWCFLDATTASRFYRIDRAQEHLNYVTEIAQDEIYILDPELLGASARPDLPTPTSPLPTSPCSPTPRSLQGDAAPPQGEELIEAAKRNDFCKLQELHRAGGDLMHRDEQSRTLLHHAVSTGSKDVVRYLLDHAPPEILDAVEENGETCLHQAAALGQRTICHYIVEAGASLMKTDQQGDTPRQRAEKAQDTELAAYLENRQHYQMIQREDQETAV

Row | SMILES | IC50 [nM]
1 | CC(C(N)=O)N(c1ccc(OC(F)(F)F)cc1)c1nc(N)c(C(=O)c2ccc(F)cc2)s1 (single isomer, unassigned) [Example 27.1, 2-[N-[4-amino-5-(4-fluorobenzoyl)thiazol-2-yl]-4-(trifluoromethoxy)anilino]propanamide] | 8650
2 | CC(C(N)=O)N(c1ccc(OC(F)(F)F)cc1)c1nc(N)c(C(=O)c2ccc(F)cc2)s1 (single isomer, unassigned) [Example 27.2, 2-[N-(4-amino-5-(4-fluorobenzoyl)thiazol-2-yl]-4-(trifluoromethoxy)anilino]propanamide] | 43.6
3 | CC(C(N)=O)N(c1ccc(F)cc1)c1nc(N)c(C(=O)c2ccc(C(F)(F)F)nc2)s1 (single isomer, unassigned) [Example 29.1, 2-(N-[4-amino-5-[6-(trifluoromethyl)pyridine-3-carbonyl]thiazol-2-yl]-4-fluoro-anilino)propanamide] | 12500
4 | CC(C(N)=O)N(c1ccc(F)cc1)c1nc(N)c(C(=O)c2ccc(C(F)(F)F)nc2)s1 (single isomer, unassigned) [Example 29.2, 2-(N-[4-amino-5-[6-(trifluoromethyl)pyridine-3-carbonyl]thiazol-2-yl]-4-fluoro-anilino)propanamide] | 46.2
5 | CC(C(N)=O)N(c1ccc(F)cc1)c1nc(N)c(C(=O)c2ccc(C#N)cc2)s1 (single isomer, unassigned) [Example 33.1, 2-(N-[4-amino-5-(4-cyanobenzoyl)thiazol-2-yl]-4-fluoro-anilino)propanamide] | 8610
6 | CC(C(N)=O)N(c1ccc(F)cc1)c1nc(N)c(C(=O)c2ccc(C#N)cc2)s1 (single isomer, unassigned) [Example 33.2, 2-(N-[4-amino-5-(4-cyanobenzoyl)thiazol-2-yl]-4-fluoro-anilino)propanamide] | 22.8
7 | CC(C(N)=O)N(c1ccc(F)cc1)c1nc(N)c(C(=O)c2ccc(OC(F)(F)F)cc2)s1 (single isomer, unassigned) [Example 40.1, 2-(N-[4-amino-5-[4-(trifluoromethoxy)benzoyl]thiazol-2-yl]-4-fluoro-anilino)propanamide] | 792
8 | CC(C(N)=O)N(c1ccc(F)cc1)c1nc(N)c(C(=O)c2ccc(OC(F)(F)F)cc2)s1 (single isomer, unassigned) [Example 40.2, 2-(N-[4-amino-5-[4-(trifluoromethoxy)benzoyl]thiazol-2-yl]-4-fluoro-anilino)propanamide] | 7.08
9 | CC(C(N)=O)N(c1ccc(Cl)cc1)c1nc(N)c(C(=O)c2ccc(Cl)cc2)s1 (single isomer, unassigned) [Example 41.1, 2-(N-[4-amino-5-(4-chlorobenzoyl)thiazol-2-yl]-4-chloro-anilino)propanamide] | 2930
10 | CC(C(N)=O)N(c1ccc(Cl)cc1)c1nc(N)c(C(=O)c2ccc(Cl)cc2)s1 (single isomer, unassigned) [Example 41.2, 2-(N-[4-amino-5-(4-chlorobenzoyl)thiazol-2-yl]-4-chloro-anilino)propanamide] | 7.73
11 | CC(C(N)=O)N(c1ccc(C(F)(F)F)cc1)c1nc(N)c(C(=O)c2ccc(OC(F)F)cc2)s1 (single isomer, unassigned) [Example 43.1, 2-[N-[4-amino-5-[4-(difluoromethoxy)benzoyl]thiazol-2-yl)-4-(trifluoromethyl)anilino]propanamide] | 2730
12 | CC(C(N)=O)N(c1ccc(C(F)(F)F)cc1)c1nc(N)c(C(=O)c2ccc(OC(F)F)cc2)s1 (single isomer, unassigned) [Example 43.2] | 5.93
13 | CC(C(N)=O)N(c1ccc(F)cc1)c1nc(N)c(C(=O)c2ccc(OC(F)F)cc2)s1 (single isomer, unassigned) [Example 44.1, 2-(N-[4-amino-5-[4-(difluoromethoxy)benzoyl]thiazol-2-yl]-4-fluoro-anilino)propanamide] | 1390
14 | CC(C(N)=O)N(c1ccc(F)cc1)c1nc(N)c(C(=O)c2ccc(OC(F)F)cc2)s1 (single isomer, unassigned) [Example 44.2, 2-(N-[4-amino-5-[4-(difluoromethoxy)benzoyl]thiazol-2-yl]-4-fluoro-anilino)propanamide] | 6.72
15 | CC(Oc1ccc(C(=O)c2sc(N(c3ccccc3)C(C)C(N)=O)nc2N)cc1)C(N)=O (single isomer, unassigned) [Example 45.1, 2-(N-[4-amino-5-[4-[2-amino-1-methyl-2-oxo-ethoxy]benzoyl]thiazol-2-yl]anilino)propanamide] | 201
16 | CC(Oc1ccc(C(=O)c2sc(N(c3ccccc3)C(C)C(N)=O)nc2N)cc1)C(N)=O (single isomer, unassigned) [Example 45.2, 2-(N-[4-amino-5-[4-[2-amino-1-methyl-2-oxo-ethoxy]benzoyl]thiazol-2-yl]anilino)propanamide] | 8910
17 | CC(Oc1ccc(C(=O)c2sc(N(c3ccccc3)C(C)C(N)=O)nc2N)cc1)C(N)=O (single isomer, unassigned) [Example 45.3, 2-(N-[4-amino-5-[4-[2-amino-1-methyl-2-oxo-ethoxy]benzoyl]thiazol-2-yl]anilino)propanamide] | 1050
18 | CC(Oc1ccc(C(=O)c2sc(N(c3ccccc3)C(C)C(N)=O)nc2N)cc1)C(N)=O (single isomer, unassigned) [Example 45.4, 2-(N-[4-amino-5-[4-[2-amino-1-methyl-2-oxo-ethoxy]benzoyl]thiazol-2-yl]anilino)propanamide] | > 20000
19 | CC(C(N)=O)N(c1nc(N)c(C(=O)c2ccc(OC(F)F)cc2)s1)c1ccc(Cl)cc1F (single isomer, unassigned) [Example 46.1, 2-(N-[4-amino-5-[4-(difluoromethoxy)benzoyl]thiazol-2-yl]-4-chloro-2-fluoro-anilino)propanamide] | 1470
20 | CC(C(N)=O)N(c1nc(N)c(C(=O)c2ccc(OC(F)F)cc2)s1)c1ccc(Cl)cc1F (single isomer, unassigned) [Example 46.2, 2-(N-[4-amino-5-[4-(difluoromethoxy)benzoyl]thiazol-2-yl]-4-chloro-2-fluoro-anilino)propanamide] | 5.69
21 | CC(C(N)=O)N(c1ccc(Cl)cc1)c1nc(N)c(C(=O)c2ccc(OC(F)F)cc2)s1 (single isomer, unassigned) [Example 47.1, 2-(N-[4-amino-5-[4-(difluoromethoxy)benzoyl]thiazol-2-yl]-4-chloro-anilino)propanamide] | 1020

Results, then the compound that gave them:

Row | IC50 [nM] | SMILES
22 | 5510 | CC(C(N)=O)N(c1ccc(F)cc1)c1nc(N)c(C(=O)c2ccc(C#N)c(F)c2)s1 (single isomer, unassigned) [Example 21.1, 2-(N-[4-amino-5-(4-cyano-3-fluoro-benzoyl)thiazol-2-yl]-4-fluoro-anilino)propanamide]
23 | 2000 | CC(C(N)=O)N(c1ccc(Cl)cc1)c1nc(N)c(C(=O)c2ccc(F)cc2)s1 (single isomer, unassigned) [Example 37.1, 2-(N-[4-amino-5-(4-fluorobenzoyl)thiazol-2-yl]-4-chloro-anilino)propanamide]
24 | 9.46 | CC(C(N)=O)N(c1ccc(Cl)cc1)c1nc(N)c(C(=O)c2ccc(F)cc2)s1 (single isomer, unassigned) [Example 37.2, 2-(N-[4-amino-5-(4-fluorobenzoyl)thiazol-2-yl]-4-chloro-anilino)propanamide]
25 | 2000 | CC(C(N)=O)N(c1ccc(F)cc1)c1nc(N)c(C(=O)c2ccc(Cl)cc2)s1 (single isomer, unassigned) [Example 38.1, 2-(N-[4-amino-5-(4-chlorobenzoyl)thiazol-2-yl]-4-fluoro-anilino)propanamide]
26 | 1.96 | CC(C(N)=O)N(c1ccc(Cl)cc1)c1nc(N)c(C(=O)c2ccc(OC(F)F)cc2)s1 (single isomer, unassigned) [Example 47.2, 2-(N-[4-amino-5-[4-(difluoromethoxy)benzoyl]thiazol-2-yl]-4-chloro-anilino)propanamide]
27 | 1.76 | CC(C(N)=O)N(c1ccc(Cl)c(F)c1)c1nc(N)c(C(=O)c2ccc(OC(F)F)cc2)s1 (single isomer, unassigned) [Example 48.1, 2-(N-[4-amino-5-[4-(difluoromethoxy)benzoyl]thiazol-2-yl]-4-chloro-3-fluoro-anilino)propanamide]
28 | 120 | CC(C(N)=O)N(c1ccc(Cl)c(F)c1)c1nc(N)c(C(=O)c2ccc(OC(F)F)cc2)s1 (single isomer, unassigned) [Example 48.2, 2-(N-[4-amino-5-[4-(difluoromethoxy)benzoyl]thiazol-2-yl]-4-chloro-3-fluoro-anilino)propanamide]
29 | 127 | CC(C(N)=O)N(c1ccc(F)c(F)c1)c1nc(N)c(C(=O)c2ccncc2)s1 (single isomer, unassigned) [Example 50.1, 2-(N-[4-amino-5-(pyridine-4-carbonyl)thiazol-2-yl]-3,4-difluoro-anilino)propanamide]
30 | 14300 | CC(C(N)=O)N(c1ccc(F)c(F)c1)c1nc(N)c(C(=O)c2ccncc2)s1 (single isomer, unassigned) [Example 50.2, 2-(N-[4-amino-5-(pyridine-4-carbonyl)thiazol-2-yl]-3,4-difluoro-anilino)propanamide]
31 | 72.7 | COc1ccc(C(=O)c2sc(N(c3ccc(F)c(F)c3)C(C)C(N)=O)nc2N)cn1 (single isomer, unassigned) [Example 52.1, 2-(N-[4-amino-5-(6-methoxypyridine-3-carbonyl)thiazol-2-yl]-3,4-difluoro-anilino)propanamide]
32 | 11400 | COc1ccc(C(=O)c2sc(N(c3ccc(F)c(F)c3)C(C)C(N)=O)nc2N)cn1 (single isomer, unassigned) [Example 52.2, 2-(N-[4-amino-5-(6-methoxypyridine-3-carbonyl)thiazol-2-yl]-3,4-difluoro-anilino)propanamide]
33 | 20.3 | CC(C(N)=O)N(c1ccc(F)c(F)c1)c1nc(N)c(C(=O)c2ccc(C(F)(F)F)nc2)s1 (single isomer, unassigned) [Example 53.1, 2-(N-[4-amino-5-[6-(trifluoromethyl)pyridine-3-carbonyl]thiazol-2-yl]-3,4-difluoro-anilino)propanamide]
